Data published in US8552013B2, “Heterocyclic compounds based on N6-substituted adenine, methods of their preparation, their use for preparation of drugs, cosmetic preparations and growth regulators, pharmaceutical preparations, cosmetic preparations and growth regulators containing these compounds” (USTAV Experimentalni Botaniky Akademie Ved Ceske Republiky, priority 2001, dated 2013).

Legend:
[1] = system: Amaranthus caudatus cotyledon/hypocotyl explants; experiment: Amaranthus bioassay, betacyanin content; type: in vivo; settings: betacyanin content at the concentration with highest activity
[2] = system: Triticum aestivum cv. Hereward leaf tips; experiment: Retention of chlorophyll in excised wheat leaf tips; type: in vivo; settings: chlorophyll retention at the concentration with highest activity
Outline: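 Tips of first leaves from 7-day wheat (cv. Hereward) seedlings kept on compound solutions (10^−8 to 10^−4 M, from DMSO stock) for 96 h in the dark at 25 °C. Chlorophyll extracted in 80% ethanol at 80 °C and read at 665 nm. Activity at the best concentration expressed relative to 10^−4 M BAP (100%), five replicates.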

[3] = system: tobacco callus Nicotiana tabacum L. cv. Wisconsin 38; experiment: Cytokinin-dependent tobacco callus growth; type: cell-based; settings: fresh callus weight at the concentration with highest activity
[4] = system: HOS; experiment: Calcein AM cytotoxicity, HOS; type: cell-based; settings: Homo sapiens, HOS, 72 h

## COc1cccc(CNc2ncnc3nc[nH]c23)c1 [6-(3-methoxybenzylamino)purine]
[1]
  activity (%) [10^−5 mol · l^−1 BAP = 100%]: 90 (±16) %
[2]
  Activity (%) [10^−4 mol · l^−1 BAP = 100%]: 178 (±16) %
[3]
  Activity (%) [10^−4 mol · l^−1 BAP = 100%]: 76 (±20) %
[4]
  IC50: > 167 µM

## Oc1ccccc1CNc1ncnc2nc[nH]c12 [ortho-topolin, 6-(2-hydroxybenzylamino)purine]
[4]
  IC50: > 167 µM

## Ic1cccc(CNc2ncnc3nc[nH]c23)c1 [6-(3-iodobenzylamino)purine]
[1]
  activity (%) [10^−5 mol · l^−1 BAP = 100%]: 79 (±3) %
[2]
  Activity (%) [10^−4 mol · l^−1 BAP = 100%]: 83.5 (±23) %
[3]
  Activity (%) [10^−4 mol · l^−1 BAP = 100%]: 76 (±8) %
[4]
  IC50: > 167 µM

## Cc1ccc(CNc2ncnc3nc[nH]c23)cc1 [6-(4-methylbenzylamino)purine]
[1]
  activity (%) [10^−5 mol · l^−1 BAP = 100%]: 26 (±10) %
[2]
  Activity (%) [10^−4 mol · l^−1 BAP = 100%]: 35 (±23) %
[3]
  Activity (%) [10^−4 mol · l^−1 BAP = 100%]: 52 (±8) %
[4]
  IC50: > 167 µM

## Oc1cccc(CNc2ncnc3nc[nH]c23)c1 [meta-topolin, 6-(3-hydroxybenzylamino)purine]
[4]
  IC50: > 167 µM

## Cc1ccccc1CNc1ncnc2nc[nH]c12 [6-(2-methylbenzylamino)purine]
[1]
  activity (%) [10^−5 mol · l^−1 BAP = 100%]: 98 (±22) %
[2]
  Activity (%) [10^−4 mol · l^−1 BAP = 100%]: 158 (±29) %
[3]
  Activity (%) [10^−4 mol · l^−1 BAP = 100%]: 118 (±3) %
[4]
  IC50: > 167 µM

## Fc1cccc(CNc2ncnc3nc[nH]c23)c1 [6-(3-fluorobenzylamino)purine]
[1]
  activity (%) [10^−5 mol · l^−1 BAP = 100%]: 140 (±5) %
[2]
  Activity (%) [10^−4 mol · l^−1 BAP = 100%]: 200 (±25) %
[3]
  Activity (%) [10^−4 mol · l^−1 BAP = 100%]: 135 (±8) %
[4]
  IC50: > 167 µM

## Fc1ccccc1CNc1ncnc2nc[nH]c12 [6-(2-fluorobenzylamino)purine]
[1]
  activity (%) [10^−5 mol · l^−1 BAP = 100%]: 116 (±3) %
[2]
  Activity (%) [10^−4 mol · l^−1 BAP = 100%]: 169 (±20) %
[3]
  Activity (%) [10^−4 mol · l^−1 BAP = 100%]: 111 (±21) %
[4]
  IC50: > 167 µM
